Experimental data published in publication PMC8568920, “Serum apolipoprotein A-I potentiates the therapeutic efficacy of lysocin E against Staphylococcus aureus” (Nature Communications, 2021).
In brackets after ≈: the same amount, converted by molar mass. Like-named read-outs stand apart in the source and are kept apart here.

How the values were obtained:
MRSA = assay: microbe, parasite or virus in culture; conditions: for MIC: Staphylococcus aureus
Method: (§1) The antimicrobial activities of the compounds were measured using the microdilution method. Measurement of the bactericidal activity of lysocin E (0.25 µg ml^−1) and nisin (2 µg ml^−1) with or without ApoA-I was performed according to the National Committee for Clinical Laboratory Standards method. […] For the ∆menA and ∆menB strains, TSB medium was used instead of cation-adjusted-Mueller Hinton broth (CA-MHB) in the microdilution method. Sera and ApoA-I, II were added to the bacterial culture before distributing them into 96-well plates. ApoA-I and ApoA-II antimicrobial activity were evaluated using the RN4220 strain. The protein binding rate of lysocin E against human plasma was determined by a rapid equilibrium dialysis device (Thermo Fisher Scientific, Waltham, MA, USA) according to the manufacturer’s instructions.

[1] = cited from earlier work
MRSA MR6 strain = assay: Mouse systemic MRSA infection model, survival ED50; format: in vivo; conditions: ICR female mice; MRSA MR6 i.p. 5.7 × 10^7 CFU in mucin; s.c. at 1 h and 6 h after infection; survival after 5 days; 5 animals/group; logistic regression
Method: Mouse protocols followed the Regulations for Animal Care and Use of the University of Tokyo under approval by the Graduate School of Pharmaceutical Science at the University of Tokyo (approval nos. 24–55). Mice were housed in a group of at most five in a cage, kept in a room maintained at 23–24 °C, 55% humidity, and 12 h light/12 h dark cycle. For Table 1, clinically isolated MRSA MR6 strain[47] was cultured overnight, suspended in 7% type II porcine stomach mucin supplemented with 0.2 mM FeNH4-citrate and intraperitoneally administered to mice (ICR, female, 4 weeks of age) at 5.7 × 10^7 colony-forming units. Lysocin E (4–0.25 mg kg^−1), vancomycin (8–0.5 mg kg^−1), linezolid (8–0.5 mg kg^−1), or daptomycin (4–0.25 mg kg^−1) were administered subcutaneously to 5 animals/group at 1 h and 6 h after infection. Mouse survival was assessed after 5 days and ED50 values were calculated by multiple logistic regression analysis. For Fig. 1d, the Newman strain was cultured in TSB overnight and cells (4.0 × 10^7 colony-forming units) were washed in phosphate-buffered saline (PBS) were injected into the tail vein of 8–12-week-old female C57BL/6J wild-type mice or Apoa1 homozygous-deficient mice. After 2 h, lysocin E (0.5 mg kg^−1) was administered subcutaneously. After 24 h, the kidneys were harvested and crushed with a BioMasher II (Nippi Incorporated, Tokyo, Japan). The suspensions were diluted with PBS(−), plated on TSB agar medium and the number of colonies was counted.

S. aureus RN4220 [2] = conditions: for MIC, Control / MIC +rhApoA-I relative to control (fold) / MIC, +rhApoA-I 25µg ml-1: RN4220; for MIC, Control: no rhApoA-I; for MIC +rhApoA-I relative to control (fold) / MIC, +rhApoA-I 25µg ml-1: rhApoA-I 25 µg ml-1
Method: as §1

S. aureus = assay: Lysocin E antimicrobial activity-enhancing activity (1 unit decreases the MIC of lysocin E to 1 µg ml−1); format: cell-based, Staphylococcus aureus; conditions: ApoA species
Method: Calf serum (10 ml) was added to 15 ml EtOH (60% v/v) and the mixture was centrifuged for 15 min. The collected supernatant was evaporated and suspended in 8 ml Milli-Q water (fraction [fr.] II). Fr. II with formic acid (0.1%) was applied to 10 ml of ODS resin (Waters Corporation, Milford, MA, USA). After washing with 25% EtOH and then 50% EtOH, the resin was eluted with 75% EtOH containing 0.1% formic acid. The eluted sample was evaporated and dissolved in 0.8 ml buffer A (10 mM phosphate buffer [pH 7.1], 6 M urea; Fr. III). Fr. III was applied to the Superose 12 10/300 GL gel filtration column (GE Healthcare) and eluted with the AKTApurifier system (GE Healthcare). The elution was performed in buffer A at a flow rate of 0.5 ml min^−1 and 60 fractions (0.5 ml per fr.) were collected in 2-ml tubes. All fractions, except for Fr. I, were dialysed in 10 mM phosphate buffer (pH 7.1) before assessment of their activities. Protein concentrations were measured using Coomassie Plus^TM protein assay reagent (Thermo Fisher) with bovine serum albumin as the standard. Amino acid sequence analysis was performed by in-gel digestion and mass spectrometric analysis. One unit was defined as the activity that decreases the MIC of lysocin E to 1 µg ml^−1.

S. aureus RN4220 [3] = assay: Direct antimicrobial activity of ApoA-I and ApoA-II; format: cell-based, Staphylococcus aureus; conditions: up to 300 or 600 µg ml^−1; purified bovine and human proteins
Method: as §1

S. aureus ∆menA strain = assay: MIC by microdilution in TSB; format: cell-based, Staphylococcus aureus; conditions: TSB medium; two independent experiments
Method: as §1

S. aureus ∆menB strain = assay: MIC by microdilution in TSB; format: cell-based, Staphylococcus aureus; conditions: TSB medium; two independent experiments
Method: as §1

rhApoA-I = biological target: T1, rhApoA-I (Homo sapiens, UniProt P02647); assay: rhApoA-I pull-down assay (antimicrobial bound to rhApoA-I, UPLC-MS); format: binding; set-up: unit not given here
T1 construct: 1 65 146 160 185 243; made in house; host or cells: E. coli BL21(DE3)/pLysS, pET20b (pET-hApoWT)
T1 sequence (P02647 25-267): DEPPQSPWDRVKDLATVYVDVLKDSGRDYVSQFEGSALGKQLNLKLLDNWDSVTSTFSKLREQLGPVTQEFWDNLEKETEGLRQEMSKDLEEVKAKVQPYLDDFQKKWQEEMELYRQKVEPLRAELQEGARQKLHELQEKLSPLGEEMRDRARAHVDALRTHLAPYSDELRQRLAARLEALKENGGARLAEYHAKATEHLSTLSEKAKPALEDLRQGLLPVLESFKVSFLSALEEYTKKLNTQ
Method: Menaquinone 4 (MK-4; 100 µl of 1.25 mM) was mixed with N-dodecyl β-D-maltoside (250 µl of 100 mM) in the presence or absence of purified lipid II or lipids (300 µl of 70 µM). Lipid II fraction was prepared from S. aureus RN4220 treated with moenomycin, followed by park nucleotide removal. The mixture was dried in vacuo and dissolved in 2 ml of water. The micelles were then filtered through a 0.45-µm polyvinylidene difluoride membrane filter and a 200 µl aliquot of the filtered micelles were used to evaluate the binding of the antimicrobials in the presence of rhApoA-I. Briefly, 5 µg of antimicrobials was added to the aliquots and the mixture was incubated for 15 min on ice in the presence of 4 µg rhApoA-I. The mixture was then transferred to His-Tag magnetic beads (Dynabeads, Thermo Fisher). The bound protein was then eluted with 250 mM imidazole and then eluted antimicrobials were quantified using an ACQUITY ultra-performance liquid chromatography (UPLC) H-Class PLUS attached to Xevo G2-XS QTof system (Waters Corporation). After injecting the sample into a 2.1 × 100 mm Acquity UPLC HSS T3 1.8 μm column (Waters Corporation) equilibrated with 0.3 mL min^–1 of 30% acetonitrile and 0.1% formic acid in water, the column was developed with a linear gradient to 60% acetonitrile and 0.1% formic acid in water over 10 min. The eluate was continuously applied to a Waters Xevo G2-XS QTof mass spectrometer and the spectra were obtained using MassLynx 4.1 (Waters Corporation) in electrospray ionisation (ESI)-positive mode that was analysed by UNIFI Scientific Information System ver. 1.9 (Waters Corporation).

## CN[C@H](CC(C)C)C(=O)N[C@H]1C(=O)N[C@@H](CC(N)=O)C(=O)N[C@H]2C(=O)N[C@H]3C(=O)N[C@H](C(=O)N[C@H](C(=O)O)c4cc(O)cc(O)c4-c4cc3ccc4O)[C@H](O)c3ccc(c(Cl)c3)Oc3cc2cc(c3O[C@@H]2O[C@H](CO)[C@@H](O)[C@H](O)[C@H]2O[C@H]2C[C@](C)(N)[C@H](O)[C@H](C)O2)Oc2ccc(cc2Cl)[C@H]1O [Vancomycin, vancomycin]
MRSA; MRSA, 10% bovine serum in medium
  MIC in 10% bovine serum: 1 µg/mL (≈ 0.69 µM)
MRSA; MRSA, microdilution, no serum
  Antimicrobial activity (MIC): 1 µg/mL
[1]; human plasma
  Protein binding (%, human plasma): 10–50[51] %
MRSA MR6 strain
  Therapeutic effect (ED50): 4.2 mg/kg
S. aureus RN4220 [2]
  MIC, Control: 1 µg/mL (≈ 0.69 µM)
  MIC +rhApoA-I relative to control (fold): 1/1
  MIC, +rhApoA-I 25µg ml-1: 1 µg/mL (≈ 0.69 µM)

## rhApoA-I: recombinant human ApoA-I
S. aureus
  Specific activity for lysocin E antimicrobial enhancing activity: 6500 unit mg-1 protein

## ApoA-II: purified bovine and human apolipoprotein A-II
S. aureus RN4220 [3]
  Inhibition of S. aureus growth by the protein alone: did not inhibit S. aureus growth

## ApoA-I: purified bovine and human apolipoprotein A-I
S. aureus RN4220 [3]
  Inhibition of S. aureus growth by the protein alone: did not inhibit S. aureus growth

## nisin (ITSISLCTPGCKTGALMGCNMKTATCHCSIHVSK)
S. aureus ∆menA strain
  Antimicrobial activity (MIC), ∆menA: 16
S. aureus ∆menB strain
  Antimicrobial activity (MIC), ∆menB: 16
rhApoA-I; CL, replicate 1
  Nisin binding to rhApoA-I (pull-down): 0.284
rhApoA-I; CL, replicate 2
  Nisin binding to rhApoA-I (pull-down): 0.1757
rhApoA-I; CL, replicate 3
  Nisin binding to rhApoA-I (pull-down): 0.257
rhApoA-I; LTA, replicate 1
  Nisin binding to rhApoA-I (pull-down): 0.1611
rhApoA-I; LTA, replicate 2
  Nisin binding to rhApoA-I (pull-down): 0.2119
rhApoA-I; LTA, replicate 3
  Nisin binding to rhApoA-I (pull-down): 0.3298
rhApoA-I; Lipid II, replicate 1
  Nisin binding to rhApoA-I (pull-down): 1.947
rhApoA-I; Lipid II, replicate 2
  Nisin binding to rhApoA-I (pull-down): 4.556
rhApoA-I; Lipid II, replicate 3
  Nisin binding to rhApoA-I (pull-down): 3.824
rhApoA-I; PG, replicate 1
  Nisin binding to rhApoA-I (pull-down): 0.4181
rhApoA-I; PG, replicate 2
  Nisin binding to rhApoA-I (pull-down): 0.2568
rhApoA-I; PG, replicate 3
  Nisin binding to rhApoA-I (pull-down): 0.2266
rhApoA-I; Vehicle (no lipid added), replicate 1
  Nisin binding to rhApoA-I (pull-down): 0.2456
rhApoA-I; Vehicle (no lipid added), replicate 2
  Nisin binding to rhApoA-I (pull-down): 0.223
rhApoA-I; Vehicle (no lipid added), replicate 3
  Nisin binding to rhApoA-I (pull-down): 0.2718
S. aureus RN4220 [2]
  MIC, Control: 8 µg/mL
  MIC +rhApoA-I relative to control (fold): 1/4
  MIC, +rhApoA-I 25µg ml-1: 2 µg/mL
S. aureus RN4220 [2]; with lipid II 25 µg ml-1
  MIC, Control: > 32 µg/mL
  MIC, +rhApoA-I 25µg ml-1: > 32 µg/mL
S. aureus RN4220 [2]; wild-type RN4220, TSB medium, two independent experiments
  Antimicrobial activity (MIC), WT: 16

## CC(=O)NC[C@H]1CN(c2ccc(N3CCOCC3)c(F)c2)C(=O)O1 [Linezolid, linezolid]
MRSA; MRSA, read-out: Antimicrobial activity (MIC)
  MIC: 2 µg/mL (≈ 5.93 µM)
MRSA; MRSA, read-out: MIC in 10% bovine serum
  MIC: 2 µg/mL (≈ 5.93 µM)
[1]; human
  Protein binding (%, human plasma): 18[52] %
MRSA MR6 strain
  Therapeutic effect (ED50): 3.8 mg/kg

## hApoA-II: purified human ApoA-II (Calbiochem)
S. aureus
  Specific activity for lysocin E antimicrobial enhancing activity: 5900 unit mg-1 protein

## CCCCCCCCCC(=O)N[C@@H](Cc1c[nH]c2ccccc12)C(=O)N[C@H](CC(N)=O)C(=O)N[C@@H](CC(=O)O)C(=O)N[C@@H]1C(=O)NCC(=O)N[C@@H](CCCN)C(=O)N[C@@H](CC(=O)O)C(=O)N[C@H](C)C(=O)N[C@@H](CC(=O)O)C(=O)NCC(=O)N[C@H](CO)C(=O)N[C@@H]([C@H](C)CC(=O)O)C(=O)N[C@@H](CC(=O)c2ccccc2N)C(=O)O[C@@H]1C [Daptomycin, daptomycin]
MRSA
  Antimicrobial activity (MIC): 0.5 µg/mL
  MIC in 10% bovine serum: 1 µg/mL (≈ 0.617 µM)
[1]; human plasma
  Protein binding (%, human plasma): 90–96[52] %
MRSA MR6 strain
  Therapeutic effect (ED50): 0.73 mg/kg
S. aureus RN4220 [2]
  MIC, Control: 0.5 µg/mL (≈ 0.309 µM)
  MIC +rhApoA-I relative to control (fold): 1/1
  MIC, +rhApoA-I 25µg ml-1: 0.5 µg/mL (≈ 0.309 µM)
